Assay results published in PubChem BioAssay (NCI).
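Step 1: Grow cells in 96-well plates. Step 2: Expose to compound for 48 hours at 5 concentrations. Step 3: Interpolate endpoints linearly; if unreached, use highest concentration. GI50 is the concentration that inhibits growth by half. TGI: total growth inhibition.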

Experiments:
Test in all cases: DTP human tumour cell line panel, 48 h
[1] = test system: NCI-H460 lung
[2] = test system: SNB-19 CNS
[3] = test system: TK-10 renal
[4] = test system: HOP-92 NSCLC
[5] = test system: 786-0 renal
[6] = test system: SF-539 CNS
[7] = test system: NCI-H522 lung
[8] = test system: OVCAR-3 ovarian
[9] = test system: SW-620 colon

SMILES | TGI [1] | TGI [2] | TGI [3] | TGI [4] | TGI [5] | TGI [6] | TGI [7] | TGI [8] | TGI [9] | GI50 [1] | GI50 [2] | GI50 [9] | GI50 [4] | GI50 [5] | GI50 [7] | GI50 [8] | GI50 [3] | GI50 [6]
CC(CC(=O)Nc1ccc(NC(=O)CC(C)N=NC(N)=O)cc1)N=NC(N)=O (configuration not stated) | > 100 µM | > 100 µM | > 100 µM | > 100 µM | > 100 µM | > 100 µM | > 100 µM | > 100 µM | – | – | – | – | – | – | – | – | – | –
CCCCCC/C(CC(=O)CCC(=O)NCCc1ccccc1)=N\Nc1ccc([N+](=O)[O-])cc1[N+](=O)[O-] | > 100 µM | > 100 µM | > 100 µM | > 100 µM | > 100 µM | > 100 µM | > 100 µM | > 100 µM | > 100 µM | – | – | – | – | – | – | – | – | –
O=C(CCc1cc(-c2ccc(F)cc2)n[nH]1)N(Cc1ccccc1)Cc1ccccc1 | > 100 µM | > 100 µM | > 100 µM | > 100 µM | > 100 µM | > 100 µM | > 100 µM | > 100 µM | > 100 µM | – | – | – | – | – | – | – | – | –
COc1ccc(/C=C2/CSC/C(=C/c3ccc(OC)c(OC)c3)C2=O)cc1OC | 7.09 µM | 16.2 µM | 29.5 µM | 43.7 µM | 3.56 µM | 10.6 µM | 5.83 µM | 5.15 µM | 3.63 µM | – | – | – | – | – | – | – | – | –
COC1CC(n2cc(F)c(N)nc2=O)OC1CO (configuration not stated) | > 100 µM | > 100 µM | > 100 µM | > 100 µM | > 100 µM | – | > 100 µM | > 100 µM | > 100 µM | – | – | – | – | – | – | – | – | –
COC(=O)C(/C(=N\O)C(=O)Nc1ccc(Br)cc1)c1nc2ccccc2[nH]c1=O (configuration not stated) | > 100 µM | > 100 µM | – | 97.6 µM | 90.8 µM | 58.4 µM | 32.5 µM | 50 µM | – | – | – | – | – | – | – | – | – | –
CCOC(=O)C(=O)Nc1nc2ccc(C)cc2s1 | > 100 µM | > 100 µM | – | > 100 µM | > 100 µM | > 100 µM | > 100 µM | > 100 µM | > 100 µM | – | – | – | – | – | – | – | – | –
CC/C(C)=C1\CCC(CN(C)C)C1=O (configuration not stated) | 33.4 µM | > 100 µM | 31.1 µM | 46.2 µM | 29.3 µM | 32.7 µM | – | 33.2 µM | 53.4 µM | – | – | – | – | – | – | – | – | –
Cc1nc(-n2nc(-c3ccccc3)cc2-c2ccccc2)sc1C(=O)/C=C/c1cccc([N+](=O)[O-])c1 | 92 µM | 23.5 µM | 92.3 µM | 51.1 µM | 25.3 µM | 22.8 µM | 30.8 µM | 15.4 µM | – | – | – | – | – | – | – | – | – | –
N#CNC1=NCCC(=O)N1CCc1c[nH]c2ccccc12 | – | > 100 µM | > 100 µM | – | > 100 µM | > 100 µM | – | > 100 µM | > 100 µM | – | – | – | – | – | – | – | – | –
Cc1ccc(C)c(NC(=O)C(=O)Nn2c(=S)[nH]c3ccccc3c2=O)c1 | > 100 µM | > 100 µM | > 100 µM | > 100 µM | > 100 µM | > 100 µM | > 100 µM | – | > 100 µM | – | – | – | – | – | – | – | – | –
CN(C)C(=S)/N=c1\ss/c(=N\S(=O)(=O)c2ccccc2)n1C | > 100 µM | > 100 µM | > 100 µM | > 100 µM | > 100 µM | > 100 µM | > 100 µM | – | > 100 µM | – | – | – | – | – | – | – | – | –
C=CCCC(=O)CC(=O)OCc1ccccc1 | > 100 µM | > 100 µM | > 100 µM | > 100 µM | > 100 µM | > 100 µM | – | > 100 µM | > 100 µM | – | – | – | – | – | – | – | – | –
CCOC(=O)CC(C)C1(C=O)CCCCC1=O (configuration not stated) | > 100 µM | > 100 µM | > 100 µM | – | > 100 µM | > 100 µM | > 100 µM | > 100 µM | – | – | – | – | – | – | – | – | – | –
CC(=O)OC1=C(CC(C)(C)C)C(=O)c2ccccc2C1=O | 79.3 µM | > 100 µM | > 100 µM | – | > 100 µM | > 100 µM | – | – | > 100 µM | – | – | – | – | – | – | – | – | –
CC(=O)[O][Hg][c]1s[c]([Hg][O]C(C)=O)[c]([Hg][O]C(C)=O)[c]1[Hg][O]C(C)=O | > 100 µM | 16.3 µM | – | 5.88 µM | 41.8 µM | – | > 100 µM | > 100 µM | – | 2.35 µM | 4.27 µM | 6.51 µM | 2.92 µM | 2.48 µM | 2.54 µM | 21.4 µM | – | –
CN1C/C(=C\c2ccc(C(=O)O)cc2)C(=O)/C(=C/c2ccc(C(=O)O)cc2)C1 | > 100 µM | – | > 100 µM | > 100 µM | > 100 µM | > 100 µM | – | > 100 µM | > 100 µM | – | – | – | – | – | – | – | – | –
CCSc1nc(N)c2cnn(CC)c2n1 | 78 µM | > 100 µM | 36.1 µM | – | > 100 µM | 27.3 µM | > 100 µM | 42.6 µM | 18.2 µM | 23.9 µM | 30.2 µM | 3.8 µM | – | 26.5 µM | > 100 µM | 4.59 µM | 4.56 µM | 6.67 µM
C/C(=N\Nc1n[nH]c(=S)n1N)c1c(O)cc(C)oc1=O | > 100 µM | > 100 µM | > 100 µM | > 100 µM | > 100 µM | > 100 µM | > 100 µM | – | > 100 µM | – | – | – | – | – | – | – | – | –
Cc1ccc([N+]2=NC(c3ccccc3)=NN(c3ccccc3)C2)cc1 | > 100 µM | > 100 µM | > 100 µM | – | > 100 µM | – | – | > 100 µM | > 100 µM | – | – | – | – | – | – | – | – | –
